Consider nine compounds from patent publication US9512075B2 (OKAYAMA UNIVERSITY, priority 2012, dated 2016).

Type in all cases: cell-based
Test [1] concerns Enterococcus faecalis NCTC12201 strain (vancomycin-resistant Enterococcus: VRE). The test is described as follows: MIC for Enterococcus faecalis NCTC12201 strain (VRE). Conditions: read-out: MIC Enterococcus faecalis NCTC 12201 (VRE).
The test system of test [2] is Enterococcus faecalis 5038 strain. The test is described as follows: MIC for Enterococcus faecalis 5038 strain. Conditions: read-out: MIC Enterococcus faecalis 5038.
Test [3] has as its system Staphylococcus aureus 209P strain. The test is described as follows: MIC for Staphylococcus aureus 209P strain. Conditions: Staphylococcus aureus, read-out: MIC Straphyrococcus aureus 209P.
The test system of test [4] is Escherichia coli BE1121 strain. The test is described as follows: MIC for Escherichia coli BE1121 strain. The following applies: Escherichia coli, BE1121STRAIN, read-out: MIC Escherichia coli BE1121.
Test [5] has as its system Clostridium perfringens PB6K strain. The test is described as follows: microbe, parasite or virus in culture. The following applies: Clostridium perfringens, PB6KSTRAIN, read-out: MIC Clostridium perfringens PB6K, PB6K strain; CD medium, 37° C. overnight, 10% CO2-containing anaerobic conditions.
Test [6] concerns Clostridium difficile JCM1296 strain. The test is described as follows: microbe, parasite or virus in culture. The following applies: Clostridioides difficile, JCM1296, read-out: MIC Clostridium difficile JCM1296.
Test [7] relates to Staphylococcus aureus Smith strain. The test is described as follows: MIC for Staphylococcus aureus Smith strain. The following applies: read-out: MIC Straphyrococcus aureus Smith.
Test [8] deals with Staphylococcus aureus MRSA No. 17 (methicillin-resistant Staphylococcus aureus: MRSA). Description: MIC for Staphylococcus aureus MRSA No. 17. Conditions: read-out: MIC Straphyrococcus aureus MRSA No. 17 (MRSA).
Test [9] relates to Escherichia coli K-12 strain. The test is described as follows: MIC for Escherichia coli K-12 strain. Conditions: Escherichia coli, K12STRAIN, read-out: MIC Escherichia coli K12.
Setting [10] is: NCTC12201 strain (VRE), Heart Infusion Broth medium, 37° C. overnight, turbidity.
Where [11] appears, read: 5038 strain, Heart Infusion Broth medium, 37° C. overnight, turbidity.
[12] abbreviates: 209P strain, regular bouillon medium, 37° C. overnight, turbidity.
Where [13] appears, read: BE1121 strain, regular bouillon medium, 37° C. overnight, turbidity.
Where [14] appears, read: Smith strain, regular bouillon medium, 37° C. overnight, turbidity.
[15] abbreviates: MRSA No. 17, regular bouillon medium, 37° C. overnight, turbidity.
Where [16] appears, read: K-12 strain, regular bouillon medium, 37° C. overnight, turbidity.

Molecules are shown by their SMILES. Converted amounts (≈) assume the structure as drawn. Like-named read-outs stand apart in the source and are kept apart here.

`CCCCCCCCCC(=O)N1C(=O)C(=C(C)O)c2ccccc21` [A022, N-decanoyl-3-acetyl-2-oxyindole]: the MIC in test [1] (setting [10]) is 1 µg/mL (≈ 3.04 µM); in test [2] (setting [11]), 1 µg/mL (≈ 3.04 µM); in test [3] (setting [12]), 8 µg/mL (≈ 24.3 µM); in test [4] (setting [13]) it was 16 µg/mL (≈ 48.6 µM); in test [5] it was 4 µg/mL (≈ 12.1 µM); in [6], 0.25 µg/mL (≈ 0.759 µM). Further, the MIC in [7] (setting [14]) is 2 µg/mL (≈ 6.07 µM); in [8] (setting [15]), 4 µg/mL (≈ 12.1 µM); in [9] (setting [16]), 128 µg/mL (≈ 389 µM).
Regarding `CCCCCCCCCCOCC(O)=C1C(=O)N(C(C)=O)c2ccc(F)cc21` [A023, N-acetyl-3-decyloxyacetyl-5-fluoro-2-oxyindole], the MIC in [1] (setting [10]) was 0.25 µg/mL (≈ 0.639 µM); in test [2] (setting [11]), 0.25 µg/mL (≈ 0.639 µM); in test [3] (setting [12]) it was 128 µg/mL (≈ 327 µM); in [4] (setting [13]) it was 128 µg/mL (≈ 327 µM); in test [5] it was < 0.125 µg/mL; in test [6] it was < 0.125 µg/mL. Also, the figures for the MIC in [7] (setting [14]), in test [8] (setting [15]) and in test [9] (setting [16]) were 1 µg/mL (≈ 2.55 µM), 64 µg/mL (≈ 163 µM) and 128 µg/mL (≈ 327 µM), respectively.
Consider `CC(=O)N1C(=O)C(=C(O)CCCCCCCCCBr)c2ccccc21` [A024, N-acetyl-3-(10-bromodecanoyl)-2-oxyindole], for which the MIC in [1] (setting [10]) was determined as 1 µg/mL (≈ 2.45 µM); in test [2] (setting [11]) it was 0.5 µg/mL (≈ 1.22 µM); in test [3] (209P), 16 µg/mL (≈ 39.2 µM); in [4], 16 µg/mL (≈ 39.2 µM); in test [5], 0.5 µg/mL (≈ 1.22 µM); in [6], 0.5 µg/mL (≈ 1.22 µM). Also, the MIC in test [7] (setting [14]) came to 4 µg/mL (≈ 9.8 µM); in [8] (setting [15]), 16 µg/mL (≈ 39.2 µM); in test [9] it was 128 µg/mL (≈ 313 µM).
For `O=C(Nc1ccccc1)N1C(=O)C(=C(O)CCCCCCCCCBr)c2ccccc21` [A025, N-(phenylaminocarbonyl)-3-(10-bromodecanoyl)-2-oxyindole], the MIC in test [1] (setting [10]) was 0.5 µg/mL (≈ 1.03 µM); in test [2] (setting [11]) it was 0.5 µg/mL (≈ 1.03 µM); in test [3] (setting [12]), 256 µg/mL (≈ 527 µM); in test [4] (setting [13]) it was 256 µg/mL (≈ 527 µM); in [5], 1 µg/mL (≈ 2.06 µM); in test [6], 0.5 µg/mL (≈ 1.03 µM). Further, the MIC was found to be 2 µg/mL (≈ 4.12 µM) in test [7] (setting [14]), 256 µg/mL (≈ 527 µM) in test [8] (setting [15]) and 256 µg/mL (≈ 527 µM) in test [9] (setting [16]).
On to `CCCCCCCCCC(O)=C1C(=O)N(C(C)=O)c2ccc(Br)cc21` [A026, N-acetyl-5-bromo-3-decanoyl-2-oxyindole], for which the MIC is < 0.125 µg/mL in test [1]; < 0.125 µg/mL in test [2] (5038STRAIN); 4 µg/mL (≈ 9.8 µM) in [3] (setting [12]); 8 µg/mL (≈ 19.6 µM) in [4] (setting [13]); 0.25 µg/mL (≈ 0.612 µM) in [5]; < 0.125 µg/mL in test [6]. In addition, the MIC was 0.25 µg/mL (≈ 0.612 µM) in [7] (setting [14]), 4 µg/mL (≈ 9.8 µM) in test [8] (setting [15]) and 128 µg/mL (≈ 313 µM) in test [9] (setting [16]).
Consider `CCCCC1CCC(C(O)=C2C(=O)N(C(=O)OC(C)(C)C)c3ccc(F)cc32)CC1` (stereo not drawn) [A027, N-Boc-3-(4-butylcyclohexylcarbonyl)-5-fluoro-2-oxyindole], for which the MIC in test [1] (setting [10]) was 8 µg/mL (≈ 19.2 µM); in test [2] (setting [11]) it was 8 µg/mL (≈ 19.2 µM); in [3] (setting [12]), 128 µg/mL (≈ 307 µM); in test [4] (setting [13]), 128 µg/mL (≈ 307 µM); in test [5], 2 µg/mL (≈ 4.79 µM); in [6], 1 µg/mL (≈ 2.4 µM). Moreover, the results for the MIC in test [7] (setting [14]), in [8] (setting [15]) and in [9] (setting [16]) were 16 µg/mL (≈ 38.3 µM), 128 µg/mL (≈ 307 µM) and 128 µg/mL (≈ 307 µM), respectively.
For the compound `CCCCCCCCCCOCC(O)=C1C(=O)N(C(C)=O)c2ccc(Br)cc21` [A029, N-acetyl-5-bromo-3-decyloxyacetyl-2-oxyindole], the MIC in test [1] was < 0.125 µg/mL; in test [2] (setting [11]), 0.25 µg/mL (≈ 0.553 µM); in test [3] (setting [12]), 128 µg/mL (≈ 283 µM); in test [4] (setting [13]), 128 µg/mL (≈ 283 µM); in test [5], < 0.125 µg/mL; in test [6] it was < 0.125 µg/mL. The MIC is 0.5 µg/mL (≈ 1.11 µM) in test [7] (setting [14]), 128 µg/mL (≈ 283 µM) in test [8] (setting [15]) and 128 µg/mL (≈ 283 µM) in test [9] (setting [16]).
Turning to `CCCCCCCCCCSCC(O)=C1C(=O)N(C(C)=O)c2ccc(Br)cc21` [A030, N-acetyl-5-bromo-3-decylthioacetyl-2-oxyindole], the MIC in test [1] (setting [10]) was 0.25 µg/mL (≈ 0.534 µM); in test [2] (setting [11]) it was 0.25 µg/mL (≈ 0.534 µM); in test [3] (setting [12]), 2 µg/mL (≈ 4.27 µM); in test [4] (setting [13]) it was 8 µg/mL (≈ 17.1 µM); in test [5], < 0.125 µg/mL; in [6], < 0.125 µg/mL. Besides, the MIC in test [7] (setting [14]) is 0.25 µg/mL (≈ 0.534 µM); in [8] (setting [15]), 2 µg/mL (≈ 4.27 µM); in test [9] (setting [16]) it was 256 µg/mL (≈ 546 µM).
In the case of `CCCCCCCCNC(=O)N1C(=O)C(=C(O)c2ccccc2)c2ccccc21` [A031, N-(octylaminocarbonyl)-3-benzoyl-2-oxyindole], the MIC in test [1] turned out to be 0.25 µg/mL (≈ 0.637 µM); in test [2] (5038STRAIN), 25 µg/mL (≈ 63.7 µM); in [3] (209P) it was 0.25 µg/mL (≈ 0.637 µM); in test [4], 256 µg/mL (≈ 652 µM); in [5], 0.25 µg/mL (≈ 0.637 µM); in [6] it was 0.25 µg/mL (≈ 0.637 µM). Also, the MIC in test [7] was 0.5 µg/mL (≈ 1.27 µM); in test [8] (MRSA) it was 256 µg/mL (≈ 652 µM); in test [9] it was 256 µg/mL (≈ 652 µM).
